Assays:
Mu-type opioid receptor [1] = target: T1, Mu-type opioid receptor (Homo sapiens, UniProt P35372); settings: HEK293-A, at 100 µM
Mu-type opioid receptor [2] = target: T1, Mu-type opioid receptor; assay: Displacement of [3H]naloxone from human mu poioid receptor expressed in HEK293 cells; format: cell-based
Mu-type opioid receptor [3] = target: T1, Mu-type opioid receptor; assay: Activation of human mu opioid receptor expressed in HEK293a cells coexpressing YFP-labelled alphai1 and CFP-labelled beta-1-gamma-2 Gi subunits assessed as decrease in fluorescence resonance energy transfer signal at 10 uM relative to morphine; format: cell-based; settings: HEK293-A
Mu-type opioid receptor [4] = target: T1, Mu-type opioid receptor; assay: Activation of human mu opioid receptor expressed in HEK293a cells co-expressing YFP-labelled alphai1 and CFP-labelled beta1gamma2 Gi subunits assessed as Gi protein activation by fluorescence resonance energy transfer; format: cell-based, HEK293-A

T1 sequence (P35372 whole entry): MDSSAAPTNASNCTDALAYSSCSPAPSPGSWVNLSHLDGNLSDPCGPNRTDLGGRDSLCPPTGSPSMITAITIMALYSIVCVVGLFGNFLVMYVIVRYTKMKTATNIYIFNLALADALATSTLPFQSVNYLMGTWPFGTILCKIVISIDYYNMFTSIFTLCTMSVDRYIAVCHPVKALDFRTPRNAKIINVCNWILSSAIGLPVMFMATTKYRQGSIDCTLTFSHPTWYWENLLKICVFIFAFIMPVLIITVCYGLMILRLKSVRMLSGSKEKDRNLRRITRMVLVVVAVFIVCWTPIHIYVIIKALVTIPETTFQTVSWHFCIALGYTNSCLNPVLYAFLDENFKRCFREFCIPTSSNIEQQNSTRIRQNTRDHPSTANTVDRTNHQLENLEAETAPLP

Compound | Emax (Mu-type opioid receptor [1]) [%] | Ki (Mu-type opioid receptor [2]) [nM] | Emax (Mu-type opioid receptor [3]) [%] | EC50 (Mu-type opioid receptor [4]) [nM]
COC1=C[C@]23CCN(C)[C@H](Cc4ccc(OC)c(O)c42)C3=C[C@@H]1O | 17.7 | – | – | –
COc1ccc(C[C@@H]2c3cc(O)c(OC)cc3CCN2C)cc1O | 15.9 | – | – | –
COc1ccc2c3c1O[C@H]1C(=O)C=C[C@H]4[C@@H](C2)N(C)CC[C@]314 [CODEINONE] | – | 459 | 100 | 294
CN1CC[C@]23c4c5ccc(O)c4O[C@H]2C(=O)C=C[C@H]3[C@H]1C5 [MORPHINONE] | – | 146 | 100 | 28
COC1=CC=C2[C@H]3Cc4ccc(O)c5c4[C@@]2(CCN3C)[C@H]1O5 [ORIPAVINE] | – | 286 | 100 | 277
COC1=C[C@]23CCN(C)[C@H](Cc4ccc(OC)c(O)c42)C3=CC1=O [SALUTARIDINE] | 54.4 | 34600 | – | 32500
COC1=CC=C2[C@H]3Cc4ccc(OC)c5c4[C@@]2(CCN3C)[C@H]1O5 [THEBAINE] | 76.3 | 7400 | – | 5600

— ChEMBL document CHEMBL1147037 (J Biol Chem, 2007)
